From patent publication US9029328B2, “Methods for cardioprotection and cardioregeneration with dimers of EGF family ligands” (The Brigham and Women's Hospital, Inc., priority 2010, dated 2015)

Columns and labels:
[1] = system: MCF-7 cells; test: ERK phosphorylation in MCF-7 cells (NRG containing ligands); type: cell-based; settings: inhibitor control
Method: (§1) FIG. 3. Bioactivity of engineered ligands. Stimulation of ERK phosphorylation by engineered EGF (C1, C2) and NRG (C3, C4) compared to native protein. Inhibition of phosphorylation was accomplished via a pan-ErbB kinase inhibitor N-(4-((3-Chloro-4-fluorophenyl)amino)-pyrido[3,4-d]pyrimidin-6-yl)2-butynamide (i), indicating specificity; FIG. 3A (HeLa), FIG. 3B (MCF-7).
(§2) Proteins are produced using a maltose binding protein (MBP) tagged system (pMAL-c2X, New England Biolabs). Proteins are analyzed by Coomassie staining, immunoblotting, mass spectrometry, absorbance at 280 nm, and in vitro cell response versus wild type ligands EGF and NRG. Specificity for ErbB receptor activation was further assessed by including inhibitor controls using the pan-ErbB kinase inhibitor N-(4-((3-Chloro-4-fluorophenyl)amino)-pyrido[3,4-d]pyrimidin-6-yl)-2-butynamide. Bioactivity and ErbB specificity were validated in HeLa and MCF-7 cells (for EGF and NRG containing ligands, respectively) (FIG. 3). HeLa cells express EGFR and ErbB2 and are responsive to EGF while MCF-7 cells express ErbB3 and ErbB4 and are responsive to NRG.

[2] = system: HeLa cells; test: ERK phosphorylation in HeLa cells (EGF containing ligands); type: cell-based; settings: inhibitor control
Method: as §1, §2

[3] = FDA label; cited from earlier work
[4] = target: T1, soluble crosslinked HER3 homodimers (ErbB3) (Homo sapiens, UniProt P21860); test: Aggregation of soluble ErbB3 by dynamic light scattering; type: binding; settings: various ligand:ErbB3 ratios, n=10
T1 construct: exposed to soluble crosslinked HER3 homodimers (ErbB3)
Method: FIG. 10. Specific binding of bivalent NN to HER3. Bivalent NN, monovalent NRG
(NC and NN), native NRG, or bivalent EN were exposed to soluble crosslinked HER3 homodimers (ErbB3) and hydrodynamic radius (RH) at various ligand:ErbB3 ratios. Receptor aggregation was determined by dynamic light scattering (n=10).

[5] = system: ErbB2 and ErbB3 receptors in H3255 cells; test: Western blot of pHER2 and pHER3 in H3255 cell lysates; type: cell-based
Description: FIG. 9. Western blot analysis of pHER2 and pHER3 in lysates from H3255 cells stimulated by monovalent NRG (NC) or bivalent NRG (NN) (data representative of 2 independent experiments) (FIG. 9B). A possible mechanism for the observed differences in monovalent NRG compared to bivalent NN, in which NN fosters homodimerization or homo-oligomerization of HER3 at the expense of heterodimers with HER2, is illustrated in the schematic (FIG. 9A).
This hypothesis is further supported by the use of H3255 cells, which express high levels of the ErbB3 receptor and low levels of the ErbB4 receptor. Because the potential phenotypic effects associated with dimerization, oligomerization, and/or aggregation are more apparent with ErbB3 than ErbB4, this setting was chosen for proof-of-concept experiments.

[6] = system: infarcted hearts; settings: nanofiber delivery, n=7, from reference [10]; cited from earlier work
[7] = target: ErbB1 (Homo sapiens, UniProt P00533); settings: NRG binding to ErbB1, reference [18]; cited from earlier work
[8] = system: Neonatal rat cardiomyocytes (NRCM); test: Cardiomyocyte viability under doxorubicin, cell titer blue assay; type: cell-based; settings: FIGS. 6 and 7; monomers compared with dimers
Method: FIG. 5. Bivalent NRG attenuates doxorubicin-induced toxicity to cardiomyocytes in vitro. (A) Neonatal rat cardiomyocytes (NRCM) were simultaneously exposed to doxorubicin (1 μM) and either fibroblast growth factor-1 (FGF1, a known NRCM mitogen), native NRG (NRG), or bivalent NRG (NRG-NRG) at the indicated doses. […] (B) Bivalent NRG may preferentially activate the PI3K/Akt pro-survival signaling pathway.
FIG. 6 is a bar graph showing the effect of NRG monomers and NRG homodimers on cardiomyocyte viability in the presence of doxorubicin.
FIG. 7 is a bar graph showing the effect of NRG monomers, NRG homodimers, EGF-NRG heterodimers, and EGF and NRG monomers on cardiomyocyte viability in the presence of doxorubicin.
The activity of engineered ErbB receptor ligands has been verified in multiple cell systems. ErbB receptor profiles in cardiomyocytes are distinct. The efficacy of engineered bivalent ligands has been tested on cardiomyocytes in culture. Specifically, the effects of native and bivalent NRG on cardiomyocytes exposed to DOX-induced cytotoxicity were examined. […] If this effect of bivalent NRG is validated in vivo, it could have significant potential as a new cardioprotective agent against DOX-induced cardiomyopathy.
FIGS. 6 and 7 show similar results.

[9] = system: hTERT-immortalized human mesenchymal stem cells (hTMSC); test: ERK phosphorylation in hTMSC, western analysis with densitometry; type: cell-based
Method: FIG. 4. Cellular responses differ between native and bivalent NRG. (A) hTMSC were exposed to native (rhNRG), monovalent (C3, C4) and bivalent (NN) NRG in culture. ERK phosphorylation was measured via western analysis and quantified by densitometry.
Since NRG has high affinity for ErbB3 as well as ErbB4, and since ErbB3 is kinase-deficient, recruitment of ErbB3 homodimers via bivalent NRG should produce a null signaling outcome, whereas native or monovalent engineered NRG should be capable of stimulating ERK phosphorylation in these cells via ErbB2/ErbB3 mediated signaling.

[10] = system: HER3 and HER4 receptors; test: NRG relative affinity for HER3 and HER4 versus HER1; type: binding
Description: Accordingly, in the context of cardiomyocytes, receptor signaling bias can be achieved, for example, through use of a ligand with high affinity for HER4/ErbB4. One such ligand is neuregulin-1β (NRG or NRG1, as used herein). To this end, the invention provides an NRG ligand homodimer. This homodimer induces HER4 homodimerization due to the high affinity of NRG for HER4/ErbB4. NRG binds HER3 and HER4 receptors with approximately 5000-fold greater affinity than HER1. ErbB3 is not expressed on cardiomyocytes however so exposure of these cells to an NRG dimer will stimulate the dimerization of HER4 homodimers without interference from HER3 receptors.

[11] = target: ErbB4 (Homo sapiens, UniProt Q15303); settings: NRG binding to ErbB4, reference [18]; cited from earlier work
Chain of ErbB4 (Q15303 26-1308, species assumed): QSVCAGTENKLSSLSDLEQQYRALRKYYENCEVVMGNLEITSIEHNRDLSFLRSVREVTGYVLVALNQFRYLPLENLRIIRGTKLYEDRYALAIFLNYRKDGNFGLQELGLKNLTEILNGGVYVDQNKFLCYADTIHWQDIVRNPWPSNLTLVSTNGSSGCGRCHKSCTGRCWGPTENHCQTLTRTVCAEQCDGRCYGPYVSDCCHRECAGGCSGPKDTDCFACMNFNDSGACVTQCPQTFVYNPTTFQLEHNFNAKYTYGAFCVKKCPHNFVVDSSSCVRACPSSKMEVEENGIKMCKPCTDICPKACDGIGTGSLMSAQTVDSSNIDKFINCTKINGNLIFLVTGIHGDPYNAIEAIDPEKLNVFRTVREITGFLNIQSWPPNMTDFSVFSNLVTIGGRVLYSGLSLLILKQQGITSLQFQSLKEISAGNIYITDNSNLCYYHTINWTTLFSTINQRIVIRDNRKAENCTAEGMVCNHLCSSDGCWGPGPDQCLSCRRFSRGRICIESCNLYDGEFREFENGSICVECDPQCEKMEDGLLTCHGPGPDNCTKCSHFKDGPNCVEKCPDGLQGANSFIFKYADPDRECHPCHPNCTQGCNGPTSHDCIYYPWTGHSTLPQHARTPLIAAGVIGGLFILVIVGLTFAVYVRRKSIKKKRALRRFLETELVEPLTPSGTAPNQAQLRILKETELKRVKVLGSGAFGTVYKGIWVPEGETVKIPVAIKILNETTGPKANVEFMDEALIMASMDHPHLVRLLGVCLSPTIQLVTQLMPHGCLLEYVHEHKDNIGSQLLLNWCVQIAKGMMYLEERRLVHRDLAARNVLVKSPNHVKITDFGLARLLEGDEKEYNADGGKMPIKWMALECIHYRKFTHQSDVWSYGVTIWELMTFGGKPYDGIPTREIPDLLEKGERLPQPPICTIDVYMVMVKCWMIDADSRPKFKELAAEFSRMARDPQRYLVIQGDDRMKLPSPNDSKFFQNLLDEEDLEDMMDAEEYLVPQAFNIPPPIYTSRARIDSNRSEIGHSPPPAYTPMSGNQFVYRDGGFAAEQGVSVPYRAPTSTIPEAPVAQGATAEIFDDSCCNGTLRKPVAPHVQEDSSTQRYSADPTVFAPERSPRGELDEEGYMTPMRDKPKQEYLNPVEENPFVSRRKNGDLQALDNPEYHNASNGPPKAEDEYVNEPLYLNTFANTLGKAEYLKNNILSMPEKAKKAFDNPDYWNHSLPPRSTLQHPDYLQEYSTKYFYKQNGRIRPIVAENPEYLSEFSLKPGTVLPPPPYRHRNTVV

T1 sequence (P21860 20-643 limits assumed): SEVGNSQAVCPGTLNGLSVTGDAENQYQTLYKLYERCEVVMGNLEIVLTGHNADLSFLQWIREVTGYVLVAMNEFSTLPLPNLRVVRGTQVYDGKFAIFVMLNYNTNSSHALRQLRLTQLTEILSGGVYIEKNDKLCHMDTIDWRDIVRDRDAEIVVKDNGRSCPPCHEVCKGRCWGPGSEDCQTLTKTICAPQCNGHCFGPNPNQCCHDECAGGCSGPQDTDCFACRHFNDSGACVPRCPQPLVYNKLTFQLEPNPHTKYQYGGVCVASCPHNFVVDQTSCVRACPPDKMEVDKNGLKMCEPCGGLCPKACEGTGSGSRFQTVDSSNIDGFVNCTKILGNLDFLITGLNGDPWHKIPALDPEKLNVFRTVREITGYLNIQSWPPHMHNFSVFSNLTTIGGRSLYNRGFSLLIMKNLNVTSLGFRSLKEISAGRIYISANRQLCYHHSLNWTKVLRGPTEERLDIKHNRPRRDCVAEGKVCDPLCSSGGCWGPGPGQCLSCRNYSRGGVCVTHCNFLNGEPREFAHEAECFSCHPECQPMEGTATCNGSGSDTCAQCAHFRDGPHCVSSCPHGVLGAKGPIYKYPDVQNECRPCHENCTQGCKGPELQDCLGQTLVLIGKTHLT

**Q.** For `CC#CC(=O)Nc1cc2c(Nc3ccc(F)c(Cl)c3)ncnc2cn1` [N-(4-((3-Chloro-4-fluorophenyl)amino)-pyrido[3,4-d]pyrimidin-6-yl)-2-butynamide], which “inhibition of ligand-induced pERK activation” value [1] is on record?
**A.** specifically inhibited

**Q.** What about the “inhibition of ligand-induced pERK activation” value [2] of the same molecule?
**A.** specifically inhibited

**Q.** For `COc1cccc2c1C(=O)c1c(O)c3c(c(O)c1C2=O)C[C@@](O)(C(=O)CO)C[C@@H]3O[C@H]1C[C@H](N)[C@H](O)[C@H](C)O1` [doxorubicin], which “cumulative dose at which risk of developing impaired myocardial function increases” value [3] is on record?
**A.** about 300 mg/m^2

**Q.** With “NC: Monovalent NRG used as comparator to bivalent NN” as the molecule, how does the “aggregation of soluble ErbB3 receptors (hydrodynamic radius)” value [4] read?
**A.** Only bivalent NN induced aggregation

**Q.** What about the “phosphorylation of ErbB2 and ErbB3 receptors” value [5] of the same molecule?
**A.** stimulates phosphorylation

**Q.** Which “capillary density (isolectin-positive staining)” value [6] does the source give for “SDF-1(S4V): Protease resistant form of SDF-1, delivered via self-assembling peptide nanofibers” here?
**A.** increased capillary density

**Q.** Which “aggregation of soluble ErbB3 receptors (hydrodynamic radius)” value [4] does the source give for neuregulin-1β [native NRG] here?
**A.** Only bivalent NN induced aggregation

**Q.** What about the Kd [7] of the same molecule?
**A.** ~5.55 µM

**Q.** What about the “cardiomyocyte viability in the presence of doxorubicin” value [8] of the same molecule?
**A.** significantly (p<0.05) decreased

**Q.** And the “ERK phosphorylation (pERK response)” value [9]?
**A.** dose-dependent increase in ERK phosphorylation

**Q.** And the “greater affinity for HER3 and HER4 than HER1” value [10]?
**A.** approximately 5000 fold

**Q.** And the Kd [11]?
**A.** ~0.0007 µM
